Source: US6693128B2, “Substituted dicinnamoylquinides and their use in augmentation of adenonsine function” (Vanderbilt University, priority 2001, dated 2004)

How the values were obtained:
[1] = molecular target: T1, human adenosine transporter (Homo sapiens, UniProt Q99808); assay: Displacement of [3H]NBTI binding in U-937 cell homogenates; conditions: mean ± SEM; for Ki: [3H]NBTI 2-4 nM, 50 mM TRIS pH 7.5, 4° C., 1.5 h, Cheng-Prusoff, read-out: Affinity (Ki μM); for Hill slope: log-logit analysis of competition binding data
T1 construct: homogenates of U-937 cell culture (American Tissue Culture Compository), expressing the human (es) transporter; endogenous in cells; host or cells: U-937 (human) cell membrane homogenates
T1 sequence (Q99808 1-456): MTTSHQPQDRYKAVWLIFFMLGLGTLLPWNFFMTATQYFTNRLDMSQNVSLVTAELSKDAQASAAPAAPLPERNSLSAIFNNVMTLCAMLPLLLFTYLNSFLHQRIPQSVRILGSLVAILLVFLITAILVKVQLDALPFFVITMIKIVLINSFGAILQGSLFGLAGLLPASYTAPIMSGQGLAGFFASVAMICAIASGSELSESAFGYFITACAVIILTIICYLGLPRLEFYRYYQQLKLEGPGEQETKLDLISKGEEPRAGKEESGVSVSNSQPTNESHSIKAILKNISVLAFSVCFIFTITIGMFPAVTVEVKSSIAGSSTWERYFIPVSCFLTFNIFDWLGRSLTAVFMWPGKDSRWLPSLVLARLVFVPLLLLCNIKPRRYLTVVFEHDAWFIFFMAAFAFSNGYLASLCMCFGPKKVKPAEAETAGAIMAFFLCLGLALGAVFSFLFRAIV
Method: Neurochem 39, 184-191 (1982), incorporated herein by reference. The cell membranes in final concentration of 0.03 mg protein/mL are incubated with [^3H]NBTI at 2-4 nM concentration in 50 mM TRIS buffer (pH 7.5) at 4° C. for 1.5 h in a total volume of 1.0 mL. Nonspecific binding is defined with 10 μM NBTI. Each determination is carried out in triplicate. Bound and free [^3H]NBTI are separated by vacuum filtration through fiberglass filters (Schleicher & Schuell, Keene, N.H.) that are presoaked with 0.3% polyethylenimine for 10 min, using a Brandel […] cell harvester. The filters are washed three times for 10 s with ice-cold 50 mM TRIS buffer and placed in 10 mL scintillation fluid (Cytoscint, ICN). Beta spectrometry is performed using a Beckman […] instrument at 47% counting efficiency. IC50 values and Hill slopes (nH) are calculated from log-logit analysis of competition binding data. Ki values of the competing ligand are calculated from IC50 values using the Cheng-Prusoff equation, Ki=IC50/(1+L/KD) […] Data are expressed as mean±standard error of the mean (SEM).

human (es) transporter = molecular target: T2, human (es) transporter (Homo sapiens, UniProt Q99808); assay: Inhibition of [3H]adenosine transport in homogenates of U-937 cell culture; format: biochemical; conditions: 10 μM [3H]adenosine; U-937 cell homogenates; HEPES buffer, 37° C., 30 min; read-out: inhibitory constant Ki, transport of [3H]adenosine
T2 construct: homogenates of U-937 cell culture (American Tissue Culture Compository), expressing the human (es) transporter; endogenous in cells; host or cells: U-937 (human) cell membrane homogenates
T2 sequence (Q99808 1-456): T1 sequence (Q99808 1-456)
Method: Inhibition of [^3H]adenosine transport in homogenates of U-937 cell culture (American Tissue Culture Compository), expressing the human (es) transporter is performed according to Gu et al, J. Neurochem 67, 972-977 (1996), which is incorporated herein by reference. Rate of transport is determined in HEPES buffer at 37° C. for 30 min (with choline replacing sodium). Full displacement curves for the adenosine transporter are obtained by using 8 concentrations of each compound, increasing by a factor of 2 and ranging from 0.25 μM-32 μM. Nonspecific transport is defined with 1 μM NBTI ((S)-(4-nitrobenzyl)-6-thioinosine). Cell cultures are grown in high glucose Dulbecco's modified Eagle's medium supplemented with NaHCO3 (40 mM), 10% fetal bovine serum (Gibco), 400 mg/L geneticin, and 0.1 mM hypoxanthine.
Briefly, the cells are cultured at 37° C. under a CO2/air (5/95, v/v) in tissue culture flasks (75 cm^2, Falcon). When reaching confluency (70-80%), cells are trypsinized and harvested by centrifugation. Harvested cells are re-suspended in 50 mM TRIS buffer at 4° C. (0.1 mg/mL), the cell membranes are disrupted by Polytron homogenization (12,500 rpm for 25 s), and the suspension is centrifuged at 30,000×g for 60 min. The supernatent is discarded and remaining the pellet is resuspended in 50 mM TRIS buffer to 0.2 mg-0.5 mg protein/mL and frozen at −80° C. until used. […]

Structure (SMILES)	Ki [1]	Hill slope [1]	Ki (human (es) transporter)	melting point
O=C(C=Cc1ccc(O)c(O)c1)OC1CC2(O)CC(OC2=O)C1OC(=O)C=Cc1ccc(O)c(O)c1 (stereo not drawn) [3,4-dicaffeoyl-1,5-quinide]	2.4 ± 0.7 µM	1.00 ± 0.03		
COc1cc(C=CC(=O)OC2CC3(O)CC(OC3=O)C2OC(=O)C=Cc2ccc(O)c(OC)c2)ccc1O (stereo not drawn) [3,4-diferuloyl-1,5-quinide]	0.96 ± 0.13 µM	0.94 ± 0.02	1200 nM	142 to 144 °C
O=C(C=Cc1ccc(O)cc1)OC1CC2(O)CC(OC2=O)C1OC(=O)C=Cc1ccc(O)cc1 (stereo not drawn) [3,4-dicoumaroyl-1,5-quinide]	0.96 ± 0.07 µM	1.22 ± 0.11		233 to 235 °C
O=C(C=Cc1ccc(Cl)cc1)OC1CC2(O)CC(OC2=O)C1OC(=O)C=Cc1ccc(Cl)cc1 (stereo not drawn) [3,4-di(4-chlorocinnamoyl)-1,5-quinide]	1.3 µM	1.12 ± 0.00		172 °C
